The test concerns the target T1, ligand binding domain of human RORγ (A262-S507) (Homo sapiens, UniProt P51449).
T1 construct: made in house; host or cells: E. coli
T1 sequence (P51449 262-507): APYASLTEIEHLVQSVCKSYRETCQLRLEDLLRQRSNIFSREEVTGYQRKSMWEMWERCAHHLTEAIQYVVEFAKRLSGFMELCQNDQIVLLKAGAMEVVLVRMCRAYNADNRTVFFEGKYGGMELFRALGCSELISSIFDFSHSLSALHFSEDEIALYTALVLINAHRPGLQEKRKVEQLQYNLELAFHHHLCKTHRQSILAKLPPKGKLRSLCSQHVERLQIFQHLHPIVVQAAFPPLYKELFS
As to the kind of experiment: General RORγ SPA binding assay (competition with [3H]25-hydroxycholesterol). The settings on record: RORγ SPA binding assay, inhibition of [3H]25-hydroxycholesterol binding; read-out: IC50. In a few lines:
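N-terminally His-tagged protein was expressed in E. coli and nickel-purified. Then 50 nM protein was preincubated with compound for 15 min at room temperature in PBS with 0.5% fatty acid free BSA, followed by radioligand for 15 min and copper His-tag SPA beads for 30 min. IC50 came from percent inhibition of binding.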
As a reminder, the IC50 is the concentration that inhibits the measured activity by half. As for `Nc1ncc(C(=O)NCc2cccc(Cl)c2)c(C2CCN(C(=O)Cc3c(F)cccc3F)CC2)n1` [Compound A89, 2-amino-N-(3-chlorobenzyl)-4-(1-(2-(2,6-difluorophenyl)acetyl)piperidin-4-yl)pyrimidine-5-carboxamide], the concentration for half-maximal inhibition (IC50) was 5.8 nM. On to `CNc1ncc(C(=O)NCc2cccc(Cl)c2)c(C2CCN(C(=O)Cc3c(F)cccc3F)CC2)n1` [Compound A90, N-(3-chlorobenzyl)-4-(1-(2-(2,6-difluorophenyl)acetyl)piperidin-4-yl)-2-(methylamino)pyrimidine-5-carboxamide], for which the IC50 was found to be 6.3 nM. As for `CCNc1ncc(C(=O)NCc2cccc(Cl)c2)c(C2CCN(C(=O)Cc3c(F)cccc3F)CC2)n1` [Compound A91, N-(3-chlorobenzyl)-4-(1-(2-(2,6-difluorophenyl)acetyl)piperidin-4-yl)-2-(ethylamino)pyrimidine-5-carboxamide], the IC50 worked out at 6.7 nM. In the case of `COc1ncc(C(=O)NCc2cccc(Cl)c2)c(C2CCN(C(=O)Cc3c(F)cccc3F)CC2)n1` [Compound A92, N-(3-chlorobenzyl)-4-(1-(2-(2,6-difluorophenyl)acetyl)piperidin-4-yl)-2-methoxypyrimidine-5-carboxamide], the concentration for half-maximal inhibition (IC50) worked out at 10 nM. With `CCOc1ncc(C(=O)NCc2cccc(Cl)c2)c(C2CCN(C(=O)Cc3c(F)cccc3F)CC2)n1` [Compound A93, N-(3-chlorobenzyl)-4-(1-(2-(2,6-difluorophenyl)acetyl)piperidin-4-yl)-2-ethoxypyrimidine-5-carboxamide], the IC50 was 16 nM.

On to `CC(C)Nc1ncc(C(=O)NCc2cccc(Cl)c2)c(C2CCN(C(=O)Cc3c(F)cccc3F)CC2)n1` [Compound A94, N-(3-chlorobenzyl)-4-(1-(2-(2,6-difluorophenyl)acetyl)piperidin-4-yl)-2-(isopropylamino)pyrimidine-5-carboxamide], for which the IC50 stood at 25.4 nM.

Turning to `CC(C)Oc1ncc(C(=O)NCc2cccc(Cl)c2)c(C2CCN(C(=O)Cc3c(F)cccc3F)CC2)n1` [Compound A95, N-(3-chlorobenzyl)-4-(1-(2-(2,6-difluorophenyl)acetyl)piperidin-4-yl)-2-isopropoxypyrimidine-5-carboxamide], the IC50 stood at 175 nM.

`NCCNc1ncc(C(=O)NCc2cccc(Cl)c2)c(C2CCN(C(=O)Cc3c(F)cccc3F)CC2)n1` [Compound A96, 2-((2-aminoethyl)amino)-N-(3-chlorobenzyl)-4-(1-(2-(2,6-difluorophenyl)acetyl)piperidin-4-yl)pyrimidine-5-carboxamide]: the IC50 amounted to 202 nM.

For `CN(C)CCNc1ncc(C(=O)NCc2cccc(Cl)c2)c(C2CCN(C(=O)Cc3c(F)cccc3F)CC2)n1` [Compound A97, N-(3-chlorobenzyl)-4-(1-(2-(2,6-difluorophenyl)acetyl)piperidin-4-yl)-2-((2-(dimethylamino)ethyl)amino) pyrimidine-5-carboxamide], the IC50 stood at 290 nM. For `O=C(NCc1cccc(Cl)c1)c1cnc(O)nc1C1CCN(C(=O)Cc2c(F)cccc2F)CC1` [Compound A98, N-(3-chlorobenzyl)-4-(1-(2-(2,6-difluorophenyl)acetyl)piperidin-4-yl)-2-hydroxypyrimidine-5-carboxamide], the concentration for half-maximal inhibition (IC50) was found to be 398 nM.

For `Cc1cc(C)cc(CNC(=O)c2cnc(C)nc2C2CCN(CCc3c(F)cccc3F)CC2)c1` [Compound A99, 4-(1-(2,6-difluorophenethyl)piperidin-4-yl)-N-(3,5-dimethylbenzyl)-2-methylpyrimidine-5-carboxamide], the 50% inhibitory concentration (IC50) was 58 nM.

As for `Cc1cc(C)cc(CNC(=O)c2cnc(C)nc2C2CCN(CCc3ccccc3Cl)CC2)c1` [Compound A100, 4-(1-(2-chlorophenethyl)piperidin-4-yl)-N-(3,5-dimethylbenzyl)-2-methylpyrimidine-5-carboxamide], the IC50 came out at 433 nM. Turning to `Cc1cc(C)cc(CNC(=O)c2cnc(C)nc2C2CCN(CCc3ccccc3)CC2)c1` [Compound A101, N-(3,5-dimethylbenzyl)-2-methyl-4-(1-phenethylpiperidin-4-yl)pyrimidine-5-carboxamide], the 50% inhibitory concentration (IC50) came to 634 nM. For the compound `Cc1ncc(C(=O)NCc2cccc(Cl)c2)c(C2(C)CCN(C(=O)Cc3c(F)cccc3F)CC2)n1` [Compound A102, N-(3-Chlorobenzyl)-4-(1-(2-(2,6-difluorophenyl)acetyl)-4-methylpiperidin-4-yl)-2-methylpyrimidine-5-carb oxamide], the IC50 turned out to be 1730 nM. Consider `Cc1ncc(C(=O)NCc2cccc(Cl)c2)c(C2(F)CCN(C(=O)Cc3c(F)cccc3F)CC2)n1` [Compound A103, N-(3-Chlorobenzyl)-4-(1-(2-(2,6-difluorophenyl)acetyl)-4-fluoropiperidin-4-yl)-2-methylpyrimidine-5-carboxamide], for which the IC50 amounted to 3.4 nM. Take `Cc1ncc(C(=O)NCc2cccc(C(F)(F)F)n2)c(C2(F)CCN(C(=O)Cc3c(F)cccc3F)CC2)n1` [Compound A104, 4-(1-(2-(2,6-difluorophenyl)acetyl)-4-fluoropiperidin-4-yl)-2-methyl-N-((6-(trifluoromethyl)pyridin-2-yl)methyl)pyrimidine-5-carboxamide]: the IC50 turned out to be 231 nM. With `Cc1cc(C)cc(CNC(=O)c2cnc(C)nc2C2(F)CCN(C(=O)Cc3c(F)cccc3F)CC2)c1` [Compound A105, 4-(1-(2-(2,6-difluorophenyl)acetyl)-4-fluoropiperidin-4-yl)-N-(3,5-dimethylbenzyl)-2-methylpyrimidine-5-carboxamide], the half-maximal inhibitory concentration (IC50) came out at 551 nM. Consider `Cc1cc(C)cc(CNC(=O)c2cnc(C)nc2C2CCN(C(=O)Nc3ccccc3F)CC2)c1` [Compound A106, N-(3,5-Dimethylbenzyl)-4-(1-((2-fluorophenyl)carbamoyl)piperidin-4-yl)-2-methylpyrimidine-5-carboxamide], for which the IC50 turned out to be 270 nM. Take `Cc1cc(C)cc(CNC(=O)c2cnc(C)nc2C2CCN(C(=O)Nc3c(F)cccc3F)CC2)c1` [Compound A107, 4-(1-((2,6-Difluorophenyl)carbamoyl)piperidin-4-yl)-N-(3,5-dimethylbenzyl)-2-methylpyrimidine-5-carboxamide]: the IC50 was found to be 12.1 nM. In the case of `CNc1nc(C)nc(C2CCN(C(=O)Cc3c(F)cccc3F)CC2)c1C(=O)NCc1cc(C)cc(C)c1` [Compound A108, 4-(1-(2-(2,6-Difluorophenyl)acetyl)piperidin-4-yl)-N-(3,5-dimethylbenzyl)-2-methyl-6-(methylamino)pyrimidine-5-carboxamide], the IC50 was 21.7 nM. For the compound `CNc1nc(C)nc(C2CCN(C(=O)Cc3c(F)cccc3F)CC2)c1C(=O)NCc1cccc(Cl)c1` [Compound A109], the IC50 was found to be 7.3 nM. As for `Cc1ncc(C(=O)NC(CO)c2cccc(Cl)c2)c(C2CCN(C(=O)Cc3c(F)cccc3F)CC2)n1` (stereo not drawn) [Compound A110, N-(1-(3-Chlorophenyl)-2-hydroxyethyl)-4-(1-(2-(2,6-difluorophenyl)acetyl)piperidin-4-yl)-2-methylpyrimidine-5-carboxamide], the IC50 is 1440 nM.

Regarding `COc1nc(C)nc(C2CCN(C(=O)Cc3c(F)cccc3F)CC2)c1C(=O)NCc1cccc(Cl)c1` [Compound A111, N-(3-Chlorobenzyl)-4-(1-(2-(2,6-difluorophenyl)acetyl)piperidin-4-yl)-6-methoxy-2-methylpyrimidine-5-carboxamide], the IC50 was found to be 9.8 nM. As for `Cc1cc(C)cc(CNC(=O)c2c(C3CCN(C(=O)Cc4c(F)cccc4F)CC3)nc(C)nc2C(F)(F)F)c1` [Compound A112, 4-(1-(2-(2,6-Difluorophenyl)acetyl)piperidin-4-yl)-N-(3,5-dimethylbenzyl)-2-methyl-6-(trifluoromethyl)pyrimidine-5-carboxamide], the IC50 was determined as 33.6 nM. Next, `Cc1cc(C)cc(CN(C)C(=O)c2cnc(C)nc2C2CCN(C(=O)Cc3c(F)cccc3F)CC2)c1` [Compound A113, 4-(1-(2-(2,6-Difluorophenyl)acetyl)piperidin-4-yl)-N-(3,5-dimethylbenzyl)-N,2-dimethylpyrimidine-5-carboxamide]: 338 nM. Consider `Cc1cc(C)cc(CNC(=O)c2cnc(C)nc2C2C=CN(C(=O)Cc3c(F)cccc3F)CC2)c1` (stereo not drawn) [Compound A114, 4-(1-(2-(2,6-Difluorophenyl)acetyl)-1,2,3,4-tetrahydropyridin-4-yl)-N-(3,5-dimethylbenzyl)-2-methylpyrimidine-5-carboxamide], for which the IC50 worked out at 3 nM. For the compound `Cc1cc(C)cc(CNC(=O)c2cnc(C)nc2C2CCN(CC(=O)c3ccccc3Cl)CC2)c1` [Compound A115, 4-(1-(2-(2-Chlorophenyl)-2-oxoethyl)piperidin-4-yl)-N-(3,5-dimethylbenzyl)-2-methylpyrimidine-5-carboxamide], the IC50 amounted to 342 nM. For the compound `Cc1cc(C)cc(CNC(=O)c2cnc(C)nc2C2CCN(C(=O)C(F)(F)c3c(F)cccc3F)CC2)c1` [Compound A116, 4-{1-[(2,6-Difluorophenyl)(difluoro)acetyl]piperidin-4-yl}-N-[(3,5-dimethylphenyl)methyl]-2-methylpyrimidine-5-carboxamide], the IC50 turned out to be 37.1 nM. `Cc1cc(C)cc(CNC(=O)c2cnc(C)nc2C2CCN(C(=O)C(F)(F)c3ccccc3)CC2)c1` [Compound A117, 4-{1-[Difluoro(phenyl)acetyl]piperidin-4-yl}-N-[(3,5-dimethylphenyl)methyl]-2-methylpyrimidine-5-carboxamide]: the concentration for half-maximal inhibition (IC50) was 253 nM. With `Cc1cc(C)cc(CNC(=O)c2cnc(C)nc2C2CCN(C(=O)C(F)(F)c3ccccc3F)CC2)c1` [Compound A118, 4-{1-[Difluoro(2-fluorophenyl)acetyl]piperidin-4-yl}-N-[(3,5-dimethylphenyl)methyl]-2-methylpyrimidine-5-carboxamide], the IC50 was 51.6 nM.
